Measurements published in PMC7824769, “Identification of Small Molecules Blocking the Pseudomonas aeruginosa Type III Secretion System Protein PcrV” (Biomolecules, 2021).

Columns and labels:
uninfected J774 cells = experiment: Cell toxicity control: compounds added to uninfected J774 cells; assay type: cell-based; details: 6 h incubation; for Toxicity towards eukaryotic cells, 25 µM: compound 25 µM; for Toxicity towards eukaryotic cells, 50 µM: compound 50 µM; for Toxicity towards eukaryotic cells, 100 µM: compound 100 µM; for Toxicity towards eukaryotic cells, 200 µM: compound 200 µM
Description: (§1) The cell viability assay was performed essentially as described before. J774 cells were seeded in 96-well micro-titer plates (Nunc), 100 µL/well, to a final number of 50,000 cells/well in Dulbecco’s modified Eagle’s medium (DMEM) with glutamax (Merck) supplemented with 10% fetal calf serum (FCS) and 3 µg/mL gentamicin and incubated for 16-18 h. Overnight cultures of the P. aeruginosa strains PAK and PAKpcrV [10] were grown in Luria Broth (LB) on a rotary shaker at 220 rpm at 37 °C. Prior to infection, the bacteria were diluted 1:10 in DMEM + glutamax and incubated for 1 h at 37 °C (shaking). The J774 cells were washed once with PBS, then 30 µL of DMEM with glutamax and 10% FCS supplemented with the potential binders at concentrations of 50, 100, 200, and 400 µM were added to the wells in triplicates. The infection was initiated by adding 30 µL of the diluted bacterial solutions (where the OD600 had been diluted to 0.0008) to each well to initiate infection. This infection results in a final bacterial concentration of OD600 = 0.0004 and a multiplicities of infection (MOI) of approximately 8, with final concentrations of the compounds at 25, 50, 100, and 200 µM in 60 µL of DMEM + glutamax and 5% FCS. In the primary screening, the compounds were run at one concentration (100 µM) in duplicates. As an infection control, the wild-type strain PAK with 1% DMSO was added, and as a positive control, PAKpcrV with 1% DMSO was added into four wells each. After 3 h and 30 min, 10 µL of UptiBlue Viable Cell Counting Kit (Interchime, France) was added to all wells. The infection was followed under the light microscope and the fluorescence (excitation 535 nm and emission 595 nm) was measured at 4, 5, and 6 h in a microplate reader (Synergy™ H4, Biotek). The results were calculated as percentage of living cells compared to uninfected control, where the uninfected control was set to 100% living cells and the infected control was set to 0% living cells. As a control, compounds were added to uninfected cells in a parallel experiment and viability was calculated as above to screen for cell toxicity. A compound was considered toxic if the viability was <80% of the uninfected control after 6 h of incubation and if a visual change of cell morphology was observed by microscopy. Z’ was calculated for each plate to ensure good quality throughout the screening. Only results from plates with a Z’ > 0.4 were counted. Standard deviation was calculated with Gaussian approximation when appropriate and shown as error bars in Figure 3C and Figure 4A.

[1] = as above; assay type: cell-based; details: mouse, uninfected J774 macrophage cells; read-out: Eukaryotic cell toxicity (viability compared to DMSO control)
Description: as §1

PcrV = PcrV (Pseudomonas aeruginosa, UniProt G3XD49); experiment: SPR dose-response binding to immobilized PcrV (equilibrium analysis); details: for Binding to PcrV in SPR (in words): dose-response SPR
Description: The SPR screening was performed using the ProteOn^TM XPR36 Protein Interaction Array System (Bio-Rad Laboratories Inc., Hercules, CA, USA) with ProteOn GLH sensor chip (Bio-Rad Laboratories Inc., Hercules, CA, USA), and the results were analyzed with the ProteOn Manager software^TM (Bio-Rad Laboratories Inc., Hercules, CA, USA), Excel 2016 (Microsoft Office), and GraphPad Prism 7.04. All SPR experiments were performed at 25 °C. The multichannel module of the ProteOn system was in the vertical position during protein immobilization. The proteins were attached to the surface of a GLH sensor chip via amine coupling chemistry. A buffer scouting was performed to elucidate the optimal binding conditions of PcrV to the GLH sensor chip. First, channels 1–4 on the chip surface were activated using a 1:1 mixture of 40 mM 1-ethyl-3-(3-dimethylaminopropyl)carbodiimide hydrochloride (EDAC) (Bio-Rad Laboratories Inc., Hercules, CA, USA) and 10 mM N-hydroxysulfosuccinimide (sulfo-NHS, Bio-Rad Laboratories Inc., Hercules, CA, USA) for 300 s at 30 µL/min. Next, the proteins PcrV (33,398.6 Da, 6.37 mg/mL) was diluted in 10 mM NaOAc (pH 4, 4.5, and 5) to 0.05 mg/mL. PcrV was immobilized in channel 1–3 for 540 s at 30 µL/min. Channel 4 was flushed with 10 mM NaOAc (pH 5) for 540 s at 30 µL/min. As deactivating agent, a 1:1 mixture of 1 M ethanolamine and milli-Q filtered water was used. The deactivating solution was injected over all four channels for 300 s at 30 µL/min. Phosphate buffered saline with Tween (PBST; 10 mM phosphate buffer pH 7.4, 140 mM NaCl, 2.7 mM KCl, and 0.05% Tween 20) was used as the running buffer. The final amount of immobilized protein was measured in resonance units (RU) relative to the signal of the baseline prior activation. […] Immobilization of PcrV diluted in sodium acetate of pH 4.5 in one channel and of pH 5 in one channel were used in the beginning of the screening procedure (for plate 1–26). Since no difference was found between the two pH values, the PcrV protein was diluted in sodium acetate at pH 5 only (in two channels) from plate 27 and the rest of the screen. The immobilization procedure for the screening was performed as described above with the addition that the control protein carbonic anhydrase isoenzyme II from bovine erythrocytes (CAII, Sigma-Aldrich, article number 2522) was immobilized in one channel that was activated and deactivated as described above. CAII (1 mg/mL in PBS) was deactivated when diluted in 10 mM sodium acetate (pH 4) to 0.05 mg/mL. Immobilization level of the deactivated CAII was 18,000 RU. Deactivated CAII was used as a control protein according to the recommendations by the ProteOn manufacturer (Bio-Rad Laboratories Inc., Hercules, CA, USA). As running buffer, we employed PBS (pH 7.4, 0.05% Tween 20).
First, the PcrV protein was immobilized in two channels as described above while keeping a blank channel which was activated and deactivated as described above. The multichannel module of the ProteOn system was in horizontal position during the small molecule interaction studies. They were serially diluted to (400,) 200, 100, 50, 25, 12.5, 6.25, and (3.125); or 100, 50, 25, and 12.5 µM; or 100, 66.7, 44.4, 29.6, 19.7, and 13.2 µM in PBST (0.05% Tween 20) with a total concentration of 5% DMSO in 96-well plates. The running buffer was PBST (0.05% Tween 20) containing 5% DMSO. The analytes were injected at a flowrate of 100 µL/min, contact time was 60 s, and dissociation time was 60–120 s. Solvent correction was performed continuously during the experiments to account for bulk response of DMSO. The data was then baseline-aligned, processed by channel referencing with the blank channel, and solvent-corrected. The equilibrium dissociation constant (KD) values were determined from equilibrium analysis in the ProteOn Manager software^TM. Solubility problems frequently hampered KD determination since the small molecules could not always be dissolved in concentrations high enough to reach a plateau. […]

[2] = KD ± standard error of KD (Table S1), single experiment, standard error from ProteOn Manager software
[3] = SPR KD, equilibrium analysis, mean ± SD of three or more independent experiments, individual values where n < 3, 25 °C, PBST 5% DMSO

Sequence of PcrV (G3XD49 entry or part of it): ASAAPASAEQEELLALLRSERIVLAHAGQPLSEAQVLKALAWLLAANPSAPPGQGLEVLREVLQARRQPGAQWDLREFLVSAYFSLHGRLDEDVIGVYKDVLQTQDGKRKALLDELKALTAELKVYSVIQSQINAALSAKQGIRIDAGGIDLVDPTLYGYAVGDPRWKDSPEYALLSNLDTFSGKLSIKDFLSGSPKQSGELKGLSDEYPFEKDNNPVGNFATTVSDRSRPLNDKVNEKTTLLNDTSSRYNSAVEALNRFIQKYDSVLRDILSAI

SMILES	Toxicity towards eukaryotic cells, 25 µM (uninfected J774 cells)	Toxicity towards eukaryotic cells, 50 µM (uninfected J774 cells)	Toxicity towards eukaryotic cells, 100 µM (uninfected J774 cells)	Toxicity towards eukaryotic cells, 200 µM (uninfected J774 cells)	viability at 6 h [1]	Kd (PcrV; [2])	Kd (PcrV; [3])	Binding to PcrV in SPR (in words) (PcrV)
CNC(=O)CCCOc1ccc(Br)c(C)c1C [Compound 19]	Toxic ^e (<80% viability compared to the DMSO control)	Toxic ^e (<80% viability compared to the DMSO control)	Toxic ^e (<80% viability compared to the DMSO control)	Toxic ^e (<80% viability compared to the DMSO control)	< 80%	177 ± 31.6 µM	121 ± 45 µM	improved or similar binding affinity
Cc1c(Br)ccc(OCCCC(N)=O)c1C [Compound 18]	Toxic ^e (<80% viability compared to the DMSO control)	Toxic ^e (<80% viability compared to the DMSO control)	Toxic ^e (<80% viability compared to the DMSO control)	Toxic ^e (<80% viability compared to the DMSO control)	< 80%	32.9 ± 5 µM	42 ± 12 µM	improved or similar binding affinity
